What was measured:
Type in all cases: biochemical
[1] = molecular target: porcine pancreatic elastase (PPE) (Sus scrofa, UniProt P00772); assay: IC50 determination, inhibition of porcine pancreatic elastase (PPE); settings: 5 min incubation with the inhibitor
HLE = molecular target: T1, HLE (Homo sapiens, UniProt P08246); assay: inhibition of HLE followed as a function of time (FIG. 1); settings: 10-fold molar excess of inhibitor, assayed at regular intervals (2 to 5 minutes)
T1 construct: chromogenic substrate MeOSuc-AAPV-pNA
T1 sequence (P08246 30-267): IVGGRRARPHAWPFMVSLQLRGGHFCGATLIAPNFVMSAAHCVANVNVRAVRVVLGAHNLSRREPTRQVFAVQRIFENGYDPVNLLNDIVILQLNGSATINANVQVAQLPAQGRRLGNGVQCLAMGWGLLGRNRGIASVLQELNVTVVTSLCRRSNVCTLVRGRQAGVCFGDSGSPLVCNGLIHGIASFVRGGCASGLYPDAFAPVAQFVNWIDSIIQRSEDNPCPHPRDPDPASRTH
Procedure: To further document the rapid, irreversible inhibition of this enzyme at low, nearly stoichiometric ratios of inhibitor to enzyme, for selected compounds, this inhibition was followed as a function of time.
The data in FIG. 1 were generated by incubating the enzyme with a 10-fold molar excess of inhibitor. Assays of residual enzymatic activity of this mixture were assayed at regular intervals (2 to 5 minutes).

[2] = molecular target: T2, human leukocyte elastase (HLE) (Homo sapiens, UniProt P08246); assay: IC50 determination, inhibition of human leukocyte elastase (HLE), hydrolysis of N-(methoxysuccinyl)-L-alanyl-L-alanyl-L-prolyl-L-valine 4-nitroanilide at 410 nm; settings: 5 min incubation with the inhibitor; pH 7.5 Tris buffer
T2 construct: purchased Elastin Products Company, Inc. (Owensville, Mo.)
T2 sequence (P08246 30-267): T1 sequence (P08246 30-267)

porcine pancreatic elastase (PPE), sequence (P00772 27-266): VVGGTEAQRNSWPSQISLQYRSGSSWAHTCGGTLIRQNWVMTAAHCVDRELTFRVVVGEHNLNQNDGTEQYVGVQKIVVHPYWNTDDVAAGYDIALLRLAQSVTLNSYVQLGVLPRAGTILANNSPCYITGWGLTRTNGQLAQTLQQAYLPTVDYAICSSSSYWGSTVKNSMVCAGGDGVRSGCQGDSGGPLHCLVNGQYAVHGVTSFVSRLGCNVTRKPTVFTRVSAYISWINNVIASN

Compound	IC50 [1]	IC50 [2]	residual HLE activity / inhibition as a function of time (HLE)
CON(C)C(=O)/C=C1/C(=O)N2C(C(=O)OC(c3ccccc3)c3ccccc3)=C(COC(C)=O)CS(=O)(=O)[C@H]12 [Compound 27, Benzhydryl 7-[(Z)-N-methoxy-N-methylaminocarbonylmethylene]cephalosporanatesulfone]	> 10 µM	> 10 µM	–
CC(=O)/C=C1/C(=O)N2C(C(=O)OC(c3ccccc3)c3ccccc3)=C(COC(C)=O)CS(=O)(=O)[C@H]12 [Compound 29, Benzhydryl 7-[(Z)-acetylmethylene]cephalosporanate sulfone]	6 µM	> 10 µM	–
CC(=O)OCC1=C(C(=O)OC(c2ccccc2)c2ccccc2)N2C(=O)/C(=C/C(=O)OC(C)(C)C)[C@H]2S(=O)(=O)C1 [Compound 18, Benzhydryl 7-[(Z)-(t-butoxycarbonyl)methylene]-cephalosporanate sulfone]	> 10 µM	7.1 µM	–
CC(=O)OCC1=C(C(=O)OC(c2ccccc2)c2ccccc2)N2C(=O)/C(=C/c3ccccn3)[C@H]2S(=O)(=O)C1 [Compound 21, Benzhydryl 7-[(Z)-(2'-pyridyl)methylene]cephalosporanate sulfone]	> 10 µM	> 10 µM	–
CC(=O)OCC1=C(C(=O)OC(c2ccccc2)c2ccccc2)N2C(=O)C(=C=CC(C)(C)C)[C@H]2S(=O)(=O)C1 [Compound 5a, Benzhydryl 7-t-butylvinylidene cephalosporanate sulfone]	> 10 µM	10.5 µM	–
CC(=O)OCC1=C(C(=O)OC(c2ccccc2)c2ccccc2)N2C(=O)C[C@H]2SC1 [Compound 33, reference compound]	> 10 µM	> 10 µM	–
CC(=O)OCC1=C(C(=O)OC(c2ccccc2)c2ccccc2)N2C(=O)C(=C=CC(C)(C)C)[C@H]2SC1 [Compound 4, Benzhydryl 7-(t-butylvinylidene)cephalosporanate]	5.5 µM	> 10 µM	–
CC(=O)OCC1=C(C(=O)OC(c2ccccc2)c2ccccc2)N2C(=O)/C(=C/C(=O)OC(C)(C)C)[C@H]2SC1 [Compound 17, Benzhydryl 7-[(Z)-t-butoxycarbonylmethylene]cephalosporanate]	–	> 10 µM	–
CC(=O)OCC1=C(C(=O)OC(c2ccccc2)c2ccccc2)N2C(=O)/C(=C\c3ccccc3)[C@H]2SC1 [Compound 11, Benzhydryl 7-[(E)-benzylidene]cephalosporanate]	> 10 µM	> 10 µM	–
CC(=O)OCC1=C(C(=O)OC(c2ccccc2)c2ccccc2)N2C(=O)/C(=C/C=O)[C@H]2SC1 [Compound 19, Benzhydryl 7-[(Z)-formylmethylene]cephalosporanate]	5.2 µM	13.9 µM	–
CC(=O)OCC1=C(C(=O)OC(c2ccccc2)c2ccccc2)N2C(=O)/C(=C/C#N)[C@H]2SC1 [Compound 30, Benzhydryl 7-[(Z)-cyanomethylene]cephalosporanate]	–	> 10 µM	–
CC(=O)OCC1=C(C(=O)OC(c2ccccc2)c2ccccc2)N2C(=O)[C@@H](N)[C@H]2SC1 [Compound 1, Benzhydryl 7β-aminocephalosporanate]	> 10 µM	> 10 µM	–
CC(=O)OCC1=C(C(=O)OC(c2ccccc2)c2ccccc2)N2C(=O)/C(=C/CO)[C@H]2SC1 [Compound 26, Benzhydryl 7-[(Z)-(hydroxymethyl)methylene]cephalosporanate]	> 10 µM	> 10 µM	–
C=C=C1C(=O)N2C(C(=O)OC(c3ccccc3)c3ccccc3)=C(COC(C)=O)CS[C@H]12 [Compound 7, Benzhydryl 7-vinylidenecephalosporanate]	0.67 µM	9 µM	–
CC(=O)OCC1=C(C(=O)OC(c2ccccc2)c2ccccc2)N2C(=O)/C(=C/c3ccccc3)[C@H]2S(=O)(=O)C1 [Compound 10, Benzhydryl 7-[(Z)-benzylidene]cephalosporanate sulfone]	> 10 µM	8.9 µM	–
CC(=O)OCC1=C(C(=O)OC(c2ccccc2)c2ccccc2)N2C(=O)C(=O)[C@H]2SC1 [Compound 2, Benzhydryl 7-oxocephalosporanate]	> 10 µM	> 10 µM	–
CC(=O)OCC1=C(C(=O)OC(c2ccccc2)c2ccccc2)N2C(=O)C(=C(Cl)Cl)[C@H]2SC1 [Compound 22, Benzhydryl 7-[dichloromethylene]cephalosporanate]	> 10 µM	6.41 µM	very potent, irreversible inhibitors of HLE
CC(=O)OCC1=C(C(=O)OC(c2ccccc2)c2ccccc2)N2C(=O)/C(=C/c3ccccc3)[C@H]2SC1 [Compound 9, benzhydryl 7-[(Z)-benzylidene] cephalosporanate]	> 10 µM	> 10 µM	–
COC(=O)/C=C1/C(=O)N2C(C(=O)OC(c3ccccc3)c3ccccc3)=C(COC(C)=O)CS(=O)(=O)[C@H]12 [Compound 25, Benzhydryl 7-[(Z)-(methoxycarbonyl)methylene]cephalosporanate sulfone]	> 10 µM	8.9 µM	–
[2H]C(=C=C1C(=O)N2C(C(=O)OC(c3ccccc3)c3ccccc3)=C(COC(C)=O)CS(=O)(=O)[C@H]12)C(C)(C)C [Compound 5b]	–	13.5 µM	–
CC(=O)OCC1=C(C(=O)OC(c2ccccc2)c2ccccc2)N2C(=O)/C(=C/c3ccccn3)[C@H]2SC1 [Compound 20, Benzhydryl 7-[(Z)-(2'-pyridyl)methylene]cephalosporanate]	> 10 µM	> 10 µM	–

Now those with a lower IC50 [2], led by results:

IC50 [1]	IC50 [2]	Compound	residual HLE activity / inhibition as a function of time (HLE)
9.6 µM	0.39 µM	CC(=O)OCC1=C(C(=O)OC(c2ccccc2)c2ccccc2)N2C(=O)/C(=C\Br)[C@H]2SC1 [Compound 15, Benzhydryl 7-[(E)-bromomethylene]cephalosporanate]	very potent, irreversible inhibitors of HLE
> 10 µM	5.4 µM	CC(=O)OCC1=C(C(=O)OC(c2ccccc2)c2ccccc2)N2C(=O)C(=C=CBr)[C@H]2SC1 [Compound 6, Benzhydryl 7-(-bromovinylidene)cephalosporanate]	–
4.8 µM	2.07 µM	CC(=O)OCC1=C(C(=O)OC(c2ccccc2)c2ccccc2)N2C(=O)C(=C(Br)Br)[C@H]2S(=O)(=O)C1 [Compound 14, Benzhydryl 7-[dibromomethylene]cephalosporanate sulfone]	very potent, irreversible inhibitors of HLE
> 10 µM	2.6 µM	COC(=O)/C=C1/C(=O)N2C(C(=O)OC(c3ccccc3)c3ccccc3)=C(COC(C)=O)CS[C@H]12 [Compound 24, Benzhydryl 7-[(Z)-methoxycarbonylmethylene]cephalosporanate]	very potent, irreversible inhibitors of HLE
> 10 µM	4.27 µM	CC(=O)/C=C1/C(=O)N2C(C(=O)OC(c3ccccc3)c3ccccc3)=C(COC(C)=O)CS[C@H]12 [Compound 28, Benzhydryl 7-[(Z)-acetylmethylene]cephalosporanate]	leveling off and allowing the enzyme to regain its activity
–	0.28 µM	CO[C@H]1C(=O)N2C(C(=O)OC(c3ccccc3)c3ccccc3)=C(COC(C)=O)CS(=O)(=O)[C@H]12 [Compound 37, reference compound]	–
> 10 µM	2.56 µM	CC(=O)OCC1=C(C(=O)OC(c2ccccc2)c2ccccc2)N2C(=O)C(=C(Cl)Cl)[C@H]2S(=O)(=O)C1 [Compound 23, Benzhydryl 7-[dichloromethylene]cephalosporanate sulfone]	–
–	5.35 µM	CO[C@H]1C(=O)N2C(C(=O)OC(c3ccccc3)c3ccccc3)=C(COC(C)=O)CS[C@H]12 [Compound 36, reference compound]	–
4.1 µM	6.1 µM	C=C=C1C(=O)N2C(C(=O)OC(c3ccccc3)c3ccccc3)=C(COC(C)=O)CS(=O)(=O)[C@H]12 [Compound 8, Benzhydryl 7-vinylidenecephalosporanate sulfone]	–
–	0.21 µM	COC(=O)/C(Br)=C1/C(=O)N2C(C(=O)OC(c3ccccc3)c3ccccc3)=C(COC(C)=O)CS[C@H]12 [Compound 32, Benzhydryl 7-{[(E)-bromo-(Z)-methoxycarbonyl]methylidene} cephalosporanate]	–
2.49 µM	3.36 µM	CC(=O)OCC1=C(C(=O)OC(c2ccccc2)c2ccccc2)N2C(=O)/C(=C\Br)[C@H]2S(=O)(=O)C1 [Compound 16, Benzhydryl 7-[(E)-bromomethylene]cephalosporanate sulfone]	leveling off and allowing the enzyme to regain its activity
> 10 µM	6 µM	CC(=O)OCC1=C(C(=O)OC(c2ccccc2)c2ccccc2)N2C(=O)/C(=C\c3ccccc3)[C@H]2S(=O)(=O)C1 [Compound 12, Benzhydryl 7-[(E)-benzylidene]cephalosporanate sulfone]	–
6.42 µM	0.26 µM	CC(=O)OCC1=C(C(=O)OC(c2ccccc2)c2ccccc2)N2C(=O)C(=C(Br)Br)[C@H]2SC1 [Compound 13, Benzhydryl 7-[dibromomethylene]cephalosporanate]	extremely rapid and efficient inhibitor of HLE
–	0.49 µM	CC(=O)OCC1=C(C(=O)OC(c2ccccc2)c2ccccc2)N2C(=O)/C(=C/C#N)[C@H]2S(=O)(=O)C1 [Compound 31, Benzhydryl 7-[(Z)-cyanomethylene]cephalosporanate sulfone]	–
